In patent US20020115699A1, “Method for treating renal disease” (SmithKline Beecham p.l.c., priority 1994, published 2002):

Experiments:
[1] = tested on: Zucker fatty (fa/fa) rats; test: Urinary total protein (Bio-Rad dye-binding assay, 24 h urine) in 9 month Zucker rat study; type: in vivo; conditions: Zucker fatty rats; for URINARY PROTEIN CONCENTRATION: mean ± SEM
Protocol: A second study was performed in Zucker rats over a period of 9 months to investigate the longitudinal effects of the drug on systolic blood pressure and various indices of renal function, two of which are exemplified here. […] A third group of Zucker fatty rats and a further group of lean rats were given diet alone throughout the period of study. After dosing with the test compound, at monthly intervals measurements were made of systolic blood pressure, urinary total protein and urinary N-acetyl β-D-glucosaminidase (NAG) activity. Twenty-four hour urine collections, made in metabolism cages, were aliquoted and frozen at −70° C. until required for assay. Urinary protein concentration was measured using the Bio-Rad protein assay as modified for use in a 96-well microtitre plate. The assay is a dye-binding assay based on the differential colour change of a dye in response to various concentrations of protein (Bradford, Anal. Biochem., 72, 248, 1976). After a period of incubation with Dye Reagent, diluted urine samples are read at an optical density of 595 nm using a Molecular Devices multiplate reader.

[2] = tested on: Zucker fatty (fa/fa) rats; test: Urinary N-acetyl β-D-glucosaminidase (NAG) activity in 9 month Zucker rat study; type: in vivo; conditions: for URINARY N-ACETYL-β-D-GLUCOSAMINIDASE ACTIVITY: mean ± SEM
Protocol: A second study was performed in Zucker rats over a period of 9 months to investigate the longitudinal effects of the drug on systolic blood pressure and various indices of renal function, two of which are exemplified here. In one arm of the study, the drug was given in the diet (50 μmole/kg of diet) from aged 6-7 weeks in Zucker fatty (fa/fa) rats, whilst in a second arm of the study, drug treatment as above was delayed until proteinuria had become established after 4 months, indicative of structural damage already present in the kidneys. A third group of Zucker fatty rats and a further group of lean rats were given diet alone throughout the period of study.
After dosing with the test compound, at monthly intervals measurements were made of systolic blood pressure, urinary total protein and urinary N-acetyl β-D-glucosaminidase (NAG) activity.
Twenty-four hour urine collections, made in metabolism cages, were aliquoted and frozen at −70° C. until required for assay.
NAG activity was assayed using a reagent kit on a Hitachi 717 analyser (both suppied by Boehringer Mannheim UK, Lewes). Enzyme activity was measured by monitoring the rate of chlorophenol (570 nm) released from the substrate chlorophenol red-β-D-glucosaminide.
In the tables below, results are given as mean values for the group ±the standard error of the mean. Results have been analysed by one way ANOVA and significant differences from the Zucker fatty rat control group have been indicated by an asterisk.

For CN(CCOc1ccc(CC2SC(=O)NC2=O)cc1)c1ccccn1 (centres unmarked) [Test Compound, 5-[4-[2-(N-methyl-N-(2-pyridyl)amino)ethoxy]benzyl]thiazolidine-2,4-dione], the “URINARY PROTEIN CONCENTRATION” value ([1]; 50 μmol/kg of diet from age 6-7 weeks (prior to renal complications), treatment duration 8 months) was 2664 ± 370 µg/h, the “URINARY PROTEIN CONCENTRATION” value ([1]; 50 μmol/kg of diet from age 6-7 weeks (prior to renal complications), treatment duration 9 months) was 3152 ± 515 µg/h and the URINARY PROTEIN CONCENTRATION ([1]; 50 μmol/kg of diet started once renal complications established (after 4 months), treatment duration 0 months) was 3520 ± 905 µg/h. The URINARY PROTEIN CONCENTRATION ([1]; 50 μmol/kg of diet started once renal complications established (after 4 months), treatment duration 1 month) was 3690 ± 386 µg/h, the URINARY PROTEIN CONCENTRATION ([1]; 50 μmol/kg of diet started once renal complications established (after 4 months), treatment duration 2 months) was 5330 ± 967 µg/h and the URINARY PROTEIN CONCENTRATION ([1]; 50 μmol/kg of diet started once renal complications established (after 4 months), treatment duration 3 months) was 6230 ± 835 µg/h. For the same compound, the URINARY PROTEIN CONCENTRATION ([1]; 50 μmol/kg of diet started once renal complications established (after 4 months), treatment duration 4 months) was 5380 ± 708 µg/h, the URINARY PROTEIN CONCENTRATION ([1]; 50 μmol/kg of diet started once renal complications established (after 4 months), treatment duration 5 months) was 7680 ± 825 µg/h and the URINARY PROTEIN CONCENTRATION ([1]; 50 μmol/kg of diet started once renal complications established (after 4 months), treatment duration −1 month (before start of drug)) was 958 ± 194 µg/h. For the same compound, the URINARY PROTEIN CONCENTRATION ([1]; 50 μmol/kg of diet started once renal complications established (after 4 months), treatment duration −2 months (before start of drug)) was 457 ± 21 µg/h, the URINARY PROTEIN CONCENTRATION ([1]; 50 μmol/kg of diet started once renal complications established (after 4 months), treatment duration −3 months (before start of drug)) was 347 ± 32 µg/h and the URINARY PROTEIN CONCENTRATION ([1]; 50 μmol/kg of diet started once renal complications established (after 4 months), treatment duration −4 months (before start of drug)) was 220 ± 13 µg/h. The “rate of increase in the urinary protein concentration” value ([1]; drug treatment commenced after proteinuria had become established) was “marked reduction”, the “elevation of urinary NAG activity” value ([2]; Zucker fatty (fa/fa) rats treated from age 6-7 weeks for 9 months via the diet) was “markedly reduced” and the “URINARY N-ACETYL-β-D-GLUCOSAMINIDASE ACTIVITY” value ([2]; Zucker fatty rats, 50 μmol/kg of diet from age 6-7 weeks (prior to renal complications), treatment duration 0 months) was 5.7 ± 0.4 mU/hour. For the same compound, the “URINARY N-ACETYL-β-D-GLUCOSAMINIDASE ACTIVITY” value ([2]; Zucker fatty rats, 50 μmol/kg of diet from age 6-7 weeks (prior to renal complications), treatment duration 1 month) was 7.5 ± 0.7 mU/hour, the “URINARY N-ACETYL-β-D-GLUCOSAMINIDASE ACTIVITY” value ([2]; Zucker fatty rats, 50 μmol/kg of diet from age 6-7 weeks (prior to renal complications), treatment duration 2 months) was 3.8 ± 1.1 mU/hour and the “URINARY N-ACETYL-β-D-GLUCOSAMINIDASE ACTIVITY” value ([2]; Zucker fatty rats, 50 μmol/kg of diet from age 6-7 weeks (prior to renal complications), treatment duration 3 months) was 4.5 ± 0.9 mU/hour. For the same compound, the “URINARY N-ACETYL-β-D-GLUCOSAMINIDASE ACTIVITY” value ([2]; Zucker fatty rats, 50 μmol/kg of diet from age 6-7 weeks (prior to renal complications), treatment duration 4 months) was 5.1 ± 1.2 mU/hour, the “URINARY N-ACETYL-β-D-GLUCOSAMINIDASE ACTIVITY” value ([2]; Zucker fatty rats, 50 μmol/kg of diet from age 6-7 weeks (prior to renal complications), treatment duration 5 months) was 6.5 ± 0.7 mU/hour and the “URINARY N-ACETYL-β-D-GLUCOSAMINIDASE ACTIVITY” value ([2]; Zucker fatty rats, 50 μmol/kg of diet from age 6-7 weeks (prior to renal complications), treatment duration 6 months) was 6.5 ± 1.1 mU/hour. For the same compound, the “URINARY N-ACETYL-β-D-GLUCOSAMINIDASE ACTIVITY” value ([2]; Zucker fatty rats, 50 μmol/kg of diet from age 6-7 weeks (prior to renal complications), treatment duration 7 months) was 8.9 ± 0.8 mU/hour, the “URINARY N-ACETYL-β-D-GLUCOSAMINIDASE ACTIVITY” value ([2]; Zucker fatty rats, 50 μmol/kg of diet from age 6-7 weeks (prior to renal complications), treatment duration 8 months) was 6.2 ± 1.2 mU/hour and the “URINARY N-ACETYL-β-D-GLUCOSAMINIDASE ACTIVITY” value ([2]; Zucker fatty rats, 50 μmol/kg of diet from age 6-7 weeks (prior to renal complications), treatment duration 9 months) was 9.1 ± 1.2 mU/hour. The “URINARY N-ACETYL-β-D-GLUCOSAMINIDASE ACTIVITY” value ([2]; Zucker fatty rats, 50 μmol/kg of diet started once renal complications established (after 4 months), treatment duration 0 months) was 7.6 ± 0.7 mU/hour, the “URINARY N-ACETYL-β-D-GLUCOSAMINIDASE ACTIVITY” value ([2]; Zucker fatty rats, 50 μmol/kg of diet started once renal complications established (after 4 months), treatment duration 1 month) was 7.6 ± 0.7 mU/hour and the “URINARY N-ACETYL-β-D-GLUCOSAMINIDASE ACTIVITY” value ([2]; Zucker fatty rats, 50 μmol/kg of diet started once renal complications established (after 4 months), treatment duration 2 months) was 5.7 ± 0.9 mU/hour. For the same compound, the “URINARY N-ACETYL-β-D-GLUCOSAMINIDASE ACTIVITY” value ([2]; Zucker fatty rats, 50 μmol/kg of diet started once renal complications established (after 4 months), treatment duration 3 months) was 7.4 ± 0.9 mU/hour, the “URINARY N-ACETYL-β-D-GLUCOSAMINIDASE ACTIVITY” value ([2]; Zucker fatty rats, 50 μmol/kg of diet started once renal complications established (after 4 months), treatment duration 4 months) was 5.4 ± 1.0 mU/hour and the “URINARY N-ACETYL-β-D-GLUCOSAMINIDASE ACTIVITY” value ([2]; Zucker fatty rats, 50 μmol/kg of diet started once renal complications established (after 4 months), treatment duration 5 months) was 8.0 ± 1.1 mU/hour. The “URINARY N-ACETYL-β-D-GLUCOSAMINIDASE ACTIVITY” value ([2]; Zucker fatty rats, 50 μmol/kg of diet started once renal complications established (after 4 months), treatment duration −1 month (before start of drug)) was 7.8 ± 0.6 mU/hour, the “URINARY N-ACETYL-β-D-GLUCOSAMINIDASE ACTIVITY” value ([2]; Zucker fatty rats, 50 μmol/kg of diet started once renal complications established (after 4 months), treatment duration −2 months (before start of drug)) was 9.5 ± 1.1 mU/hour and the “URINARY N-ACETYL-β-D-GLUCOSAMINIDASE ACTIVITY” value ([2]; Zucker fatty rats, 50 μmol/kg of diet started once renal complications established (after 4 months), treatment duration −3 months (before start of drug)) was 8.3 ± 0.5 mU/hour. The “URINARY N-ACETYL-β-D-GLUCOSAMINIDASE ACTIVITY” value ([2]; Zucker fatty rats, 50 μmol/kg of diet started once renal complications established (after 4 months), treatment duration −4 months (before start of drug)) was 5.4 ± 0.2 mU/hour and the “urinary NAG activity” value ([2]; Zucker fatty rats, drug treatment commenced after proteinuria had become established) was “prevented from rising further”.
